In the NIST ThermoML archive (doi:10.1016/j.fluid.2018.04.024):
± gives the expanded uncertainty stated by the source.

Settings: Liquid, Vibrating tube method

CCCCCC(=O)OC [methyl hexanoate]
mass density [kg/m3]
Settings	293.15 K	303.15 K	313.15 K	323.15 K	333.15 K	343.15 K	353.15 K	363.15 K
100 kPa	884.48 ± 0.91	874.56 ± 0.9	865.26 ± 0.89	855.18 ± 0.88	845.43 ± 0.87	835.2 ± 0.86	825.57 ± 0.85	815.64 ± 0.85
1000 kPa	884.65 ± 0.91	875.42 ± 0.9	865.64 ± 0.89	856.16 ± 0.88	846.26 ± 0.88	836.39 ± 0.87	826.5 ± 0.86	816.87 ± 0.85
3000 kPa	886.42 ± 0.91	877.13 ± 0.91	867.5 ± 0.9	858.01 ± 0.89	848.43 ± 0.88	838.54 ± 0.87	828.96 ± 0.86	819.47 ± 0.85
5000 kPa	887.67 ± 0.92	878.76 ± 0.91	869.26 ± 0.9	859.89 ± 0.89	850.38 ± 0.88	840.78 ± 0.88	831.13 ± 0.87	821.87 ± 0.86
10000 kPa	891.64 ± 0.93	882.75 ± 0.92	873.55 ± 0.91	864.44 ± 0.9	855.15 ± 0.9	845.7 ± 0.89	836.55 ± 0.88	827.32 ± 0.87
15000 kPa	895.33 ± 0.93	886.63 ± 0.93	877.59 ± 0.92	868.76 ± 0.91	859.63 ± 0.91	850.49 ± 0.9	841.75 ± 0.89	833.11 ± 0.89
20000 kPa	898.81 ± 0.94	890.21 ± 0.94	881.48 ± 0.93	872.98 ± 0.92	864 ± 0.92	855.28 ± 0.91	846.44 ± 0.91	837.93 ± 0.9
25000 kPa	902.28 ± 0.95	893.78 ± 0.94	885.29 ± 0.94	876.76 ± 0.93	868.18 ± 0.93	859.46 ± 0.92	851.08 ± 0.92	842.64 ± 0.91
30000 kPa	905.55 ± 0.96	897.24 ± 0.95	888.86 ± 0.95	880.55 ± 0.94	871.99 ± 0.94	863.7 ± 0.93	855.46 ± 0.93	847.27 ± 0.93
35000 kPa	908.69 ± 0.96	900.52 ± 0.96	892.33 ± 0.96	884.15 ± 0.95	875.8 ± 0.95	867.75 ± 0.95	859.68 ± 0.94	851.7 ± 0.94
40000 kPa	911.73 ± 0.97	903.67 ± 0.97	895.54 ± 0.96	887.68 ± 0.96	879.63 ± 0.96	871.46 ± 0.96	863.59 ± 0.95	856.02 ± 0.95
50000 kPa	917.83 ± 0.98	909.79 ± 0.98	901.99 ± 0.98	894.33 ± 0.98	886.48 ± 0.98	878.77 ± 0.98	871.08 ± 0.98	863.88 ± 0.98
60000 kPa	923.06 ± 1	915.57 ± 1	907.83 ± 0.99	900.65 ± 0.99	892.97 ± 0.99	885.3 ± 1	878.16 ± 1	871.24 ± 1
